Measurements published in patent publication US4778824A, “Method for suppressing a transplantation immunity and treating an allergic disease and an autoimmune disease” (Zaidan Hojin Biseibutsu Kagaku Kenkyu Kai, priority 1984, dated 1988).
Counter-ions that a name gives are not always drawn.

What was measured:
IgM antibody production = experiment: Inhibition of IgM antibody production against sheep red blood cells (plaque-forming cells); assay type: in vivo, CDF 1 mice; conditions: 3 days; for IgM plaque-forming cell count: ± S.D.
Text: Additionally, in accordance with the method of Jerne et al. (Jerne et al., Cell-bound Antibodies, pp. 109-122, 1963), the inventors examined the inhibitory action of spergualin on humoral immunity which is primarily the domain of the B-lymphocytes. The test procedure consisted of counting the number of spleen cells that were extracted from mice sensitized by antigenic sheep red blood cells and which formed immunoglobulin M (IgM) plaques. […] As summarized in Experiments 4 and 5 spergualin inhibited the production of IgG and IgE.
CDF 1 mice (6-10 wk old, female) were immunized by intravenous injection of 1×10^8 sheep red blood cells. The mice were intraperitoneally administered varying doses (see Table 3 below) of the test compound for a period of 3 days starting from the day following the intravenous injection. Four days later, spleen cells were isolated from the mice and the number of IgM plaque-forming cells was counted by a known method (Yata et al.; Gan to Kagaku Ryoho (Cancer and Chemotherapy), vol. 2, pp. 903-908, 1975). The percentage inhibition of IgM antibody production was calculated by (1-B/A)×100 wherein A is the count for a control group (given physiological saline) and B, for the treated group.

[1] = tested on: Skin allograft rejection (SHR to Fischer rats); experiment: Inhibition of rejection of skin allograft; assay type: in vivo; conditions: ± S.D.
Text: In the next place, the present inventors conducted a skin graft test with rats. In accordance with the method of Denham et al. (Denham et al., International Archives of Allergy and Applied Immunology, vol. 62, pp. 443-458, 1980), the skin of the tail of SHR rats was peeled and allografted onto Fischer rats. […] The inhibitory action of spergualin on tissue rejections is expected to manifest itself not only in skin transplantation but also in the transplantation of such organs as the kidney, heart, spleen, lung, liver, bone marrow and endocrine organs.
Skin sections (5×10 mm) were peeled from the tails of SHR rats (female, 10 wk old) and transplanted to Fischer rats (female, 10 wk old) on the back. Varying doses of spergualin were administered intraperitoneally for a consecutive period of 10 or 20 days starting on the day following the transplantation. Complete necrosis of the graft was used as a measure of rejection and the inhibitory action of the compound was evaluated in terms of how long the rejection was postponed. […] The longer the period of administration, the greater the inhibitory action.

[2] = tested on: acute experimental allergic encephalomyelitis; experiment: Effect on acute experimental allergic encephalomyelitis; assay type: in vivo, strain 13 guinea pigs; conditions: 2 weeks, with S.D.
Description: Male strain 13 guinea pigs were used. A group consisted of 5 guinea pigs. An aqueous suspension of 50% syngeneic spinal cord homogenate was emulsified in an equal volume of complete Freund's adjuvant containing M. tuberculosis at 20 mg/ml. The antigen emulsion (0.1 ml) was injected both hindfootpads of a guinea pig. Spergualin was administered i.p. for 2 weeks at 0.78 and 1.56 mg/kg.

IgG antibody production = experiment: Inhibition of IgG antibody production against sheep red blood cells (plaque-forming cells); assay type: in vivo, CDF 1 mice; conditions: 50 mg/kg/day i.p.; for IgG plaque forming cell count: ± S.D., significant (P < 0.0001); for inhibition at 50 mg/kg/day: Mus musculus, Erythrocyte, ip, IgG
Description: CDF 1 mice (6-10 wk old, female) were immunized by intravenous injection of 1×10^8 sheep red blood cells. The mice were intraperitoneally administered 50 mg/kg/day of the test compound for a period of 4 days starting on the day following the immunization or 3 days after that day. Seven days after the sensitization, spleen cells were isolated and the number of IgG plaque forming cells was counted by a known method (Yata et al., supra). As in Experiment 3, the percentage inhibition of IgG antibody production was determined.

B-lymphocyte = experiment: Inhibition of LPS-induced reaction of B-lymphocyte blastogenesis (3H-thymidine uptake); assay type: cell-based, BALB/c mice; conditions: LPS 100 μg/ml; for ^3 H--thymidine uptake: ± S.D.
Description: The present inventors conducted tests to evaluate the actions of spergualin against the reaction of lymphocyte blastogenesis in accordance with the method of Waithe et al. (Waithe et al., Handbook of Experimental Immunology, page 26.1, 1978).
Spleen cells from BALB/c mice were distritubed among wells in a microplate so that each well contained 2×10^5 cells/0.2 ml. The compound was added to all wells but one, the latter being used as a control. Con A (5 μg/ml) was added to all the wells and the so prepared cell suspensions were cultivated in a 5% CO2 incubator for 72 hours at 37° C. Eight hours before the completion of the incubation, 1 μCi of ^3 H-thymidine was added to each well and the uptake of the thymidine by the cultured cells was measured with a liquid scintillation counter to estimate the progress of the reaction of T-lymphocyte blastogenesis. The percentage inhibition of the blastogenesis by the test compound was calculated by: […] wherein Adpm indicates the uptake count for the addition of only Con A and Bdpm, the count for the addition of both Con A and the test compound.
The uptake of ^3 H-thymidine by B-cell was measured in accordance with the method used in Experiment 1, except that the inducer Con A was replaced by 100 μg/ml of LPS from E. coli. The percentage inhibition of blastogenesis by the test compound was also determined by the same method as used in Experiment 1.

N=C(N)NCCCCC(O)CC(=O)NC(O)C(=O)NCCCCNCCCN (centres unmarked) [spergualin (trihydrochloride)]
IgM plaque-forming cell count (IgM antibody production; 1 mg/kg/day i.p.): 1,304 ± 188 cells/10^6 spleen cells × 100 | IgM plaque-forming cell count (IgM antibody production; 5 mg/kg/day i.p., significant (P < 0.001)): 632 ± 87 cells/10^6 spleen cells × 100 | IgM plaque-forming cell count (IgM antibody production; 10 mg/kg/day i.p., significant (P < 0.001)): 392 ± 87 cells/10^6 spleen cells × 100 | IgM plaque-forming cell count (IgM antibody production; 25 mg/kg/day i.p., significant (P < 0.001)): 149 ± 53 cells/10^6 spleen cells × 100 | IgM plaque-forming cell count (IgM antibody production; 50 mg/kg/day i.p., significant (P < 0.001)): 64 ± 24 cells/10^6 spleen cells × 100 | inhibition at 1 mg/kg/day (IgM antibody production; Mus musculus, Erythrocyte, ip, 72 h, IgM, 1 mg/kg/day i.p.): 10.3% | inhibition at 5 mg/kg/day (IgM antibody production; Mus musculus, Erythrocyte, ip, 72 h, IgM, 5 mg/kg/day i.p.): 56.5% | inhibition at 10 mg/kg/day (IgM antibody production; Mus musculus, Erythrocyte, ip, 72 h, IgM, 10 mg/kg/day i.p.): 73% | inhibition at 25 mg/kg/day (IgM antibody production; Mus musculus, Erythrocyte, ip, 72 h, IgM, 25 mg/kg/day i.p.): 89.7% | inhibition at 50 mg/kg/day (IgM antibody production; Mus musculus, Erythrocyte, ip, 72 h, IgM, 50 mg/kg/day i.p.): 95.5% | Average No. of days before rejection ([1]; Run 1, 6.25 mg/kg/day i.p., days 1-10): 10.2 ± 2.6 days | Average No. of days before rejection ([1]; Run 1, 12.5 mg/kg/day i.p., days 1-10): 13.0 ± 4.2 days | Average No. of days before rejection ([1]; Run 1, 25.0 mg/kg/day i.p., days 1-10): 14.9 ± 6.9 days | Average No. of days before rejection ([1]; Run 1, 50.0 mg/kg/day i.p., days 1-10): 17.0 ± 3.2 days | Average No. of days before rejection ([1]; Run 2, 25.0 mg/kg/day i.p., days 1-10): 15.0 ± 5.2 days | Average No. of days before rejection ([1]; Run 2, 25.0 mg/kg/day i.p., days 1-20): 31.0 ± 1.9 days | Mean survival time ([2]; 0.78 mg/kg i.p.): 15.2 ± 1.8 days | Mean survival time ([2]; 1.56 mg/kg i.p., P < 0.01): 23.6 ± 9.2 days | IgG plaque forming cell count (IgG antibody production; days 1-4 after sensitization): 17 ± 16 cells/10^6 spleen cells | IgG plaque forming cell count (IgG antibody production; days 3-6 after sensitization): 19 ± 15 cells/10^6 spleen cells | inhibition at 50 mg/kg/day (IgG antibody production; days 1-4 after sensitization): 96.7% | inhibition at 50 mg/kg/day (IgG antibody production; days 3-6 after sensitization): 96.3% | ^3 H--thymidine uptake (B-lymphocyte; 10 μg/ml): 38,842 ± 21,573 dpm | ^3 H--thymidine uptake (B-lymphocyte; 100 μg/ml): 396 ± 216 dpm | inhibition at 10 µg/mL (B-lymphocyte; Mus musculus, 10 μg/ml): 83.4% | inhibition at 100 µg/mL (B-lymphocyte; Mus musculus, 100 μg/ml): 99.8%
